Assay results taken from patent US20100274022A1, “G PROTEIN-COUPLED RECEPTOR INHIBITOR AND PHARMACEUTICAL PRODUCT” (PHARMAFRONTIER CO., LTD., priority 2007, published 2010).

Molecular target: T1, humanGPR120 (Homo sapiens, UniProt Q5NUL3)
T1 construct: expressed in transfected cells
T1 sequence (Q5NUL3 1-377 isoform Q5NUL3-1 R67C/Q274H/I297T): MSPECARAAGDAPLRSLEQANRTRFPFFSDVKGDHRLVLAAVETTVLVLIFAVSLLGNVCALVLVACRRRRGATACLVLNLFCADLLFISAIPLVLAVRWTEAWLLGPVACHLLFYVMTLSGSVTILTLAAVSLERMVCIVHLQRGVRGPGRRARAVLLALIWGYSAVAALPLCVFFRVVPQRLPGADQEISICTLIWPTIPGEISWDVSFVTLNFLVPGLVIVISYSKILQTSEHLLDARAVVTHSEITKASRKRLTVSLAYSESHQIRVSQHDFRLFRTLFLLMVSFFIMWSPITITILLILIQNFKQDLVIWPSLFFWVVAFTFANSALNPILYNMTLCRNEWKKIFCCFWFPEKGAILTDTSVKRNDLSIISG
Assay: Inhibitory effect on activation (antagonistic activity): α-LA-stimulated increase in intracellular Ca2+ concentration measured by FLIPR in cells comprising GPR120
Assay type: cell-based

With “(E)-3-{3-[2-(2-nonylpyridinylamino)ethoxy]phenyl}acrylic acid [ATG-19]” the “antagonistic activity for GPR120 (result in words)” value was “significant antagonistic activity”.
